Measured values as given in BindingDB's records for doi:10.1016/j.bmcl.2010.01.039 (Institute of Science and Technology, 2010).

Each compound was assayed against T1, Receptor-type tyrosine-protein kinase FLT3 (Homo sapiens, UniProt P36888) (assay: Inhibition of FLT3 by HTRF assay).
T1 sequence (P36888 whole entry): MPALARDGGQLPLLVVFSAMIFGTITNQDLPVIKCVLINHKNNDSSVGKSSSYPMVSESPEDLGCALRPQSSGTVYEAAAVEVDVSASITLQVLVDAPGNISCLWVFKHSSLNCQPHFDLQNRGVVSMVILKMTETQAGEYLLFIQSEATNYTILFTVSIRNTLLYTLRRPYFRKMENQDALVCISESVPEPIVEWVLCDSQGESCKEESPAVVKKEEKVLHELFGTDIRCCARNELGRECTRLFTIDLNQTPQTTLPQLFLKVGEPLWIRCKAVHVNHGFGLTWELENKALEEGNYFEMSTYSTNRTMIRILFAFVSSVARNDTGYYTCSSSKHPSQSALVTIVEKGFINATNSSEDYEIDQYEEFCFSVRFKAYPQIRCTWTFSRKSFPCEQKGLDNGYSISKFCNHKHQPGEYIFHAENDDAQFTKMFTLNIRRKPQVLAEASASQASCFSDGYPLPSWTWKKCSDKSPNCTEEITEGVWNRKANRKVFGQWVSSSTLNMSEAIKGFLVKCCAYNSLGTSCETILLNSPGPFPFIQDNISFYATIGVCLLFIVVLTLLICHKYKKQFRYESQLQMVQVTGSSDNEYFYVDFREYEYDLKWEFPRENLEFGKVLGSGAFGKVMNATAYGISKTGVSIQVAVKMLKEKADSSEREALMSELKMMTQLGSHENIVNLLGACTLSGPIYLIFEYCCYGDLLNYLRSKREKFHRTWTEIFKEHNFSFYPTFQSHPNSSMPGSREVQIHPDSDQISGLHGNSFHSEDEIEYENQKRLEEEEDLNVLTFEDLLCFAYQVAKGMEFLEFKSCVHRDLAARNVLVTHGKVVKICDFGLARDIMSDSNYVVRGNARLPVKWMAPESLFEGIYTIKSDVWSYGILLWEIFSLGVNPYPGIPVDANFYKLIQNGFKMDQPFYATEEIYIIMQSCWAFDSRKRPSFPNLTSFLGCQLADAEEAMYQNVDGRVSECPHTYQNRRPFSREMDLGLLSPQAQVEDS

IC50, > 10 µM:
O=C1N=c2ccc([N+](=O)[O-])cc2=C1c1[nH]c2ccccc2c1O [(Z)-5'-Nitro-1H,1'H-[2,3']biindolylidene-3,2'-dione]
O=Nc1c(C2C(=O)Nc3ccc(OC(F)(F)F)cc32)[nH]c2ccccc12 (centres undefined) [5'-Trifluoromethoxy-1H,1'H-[2,3']biindolylidene-3,2'-dione 3-oxime]
O=Nc1c(C2C(=O)Nc3ccc([N+](=O)[O-])cc32)[nH]c2ccc(Br)cc12 (centres undefined) [(Z)-5-Bromo-5'-nitro-1H,1'H-[2,3']biindolylidene-3,2'-dione 3-oxime]
Cc1cc(Cl)cc2c1NC(=O)C2c1[nH]c2ccccc2c1N=O (centres undefined) [5'-Chloro-7'-methyl-1H,1'H-[2,3']biindolylidene-3,2'-dione 3-oxime]
